Source: patent publication US20240132511A1, “TREATMENTS OF PRADER-WILLI SYNDROME” (Neuren Pharmaceuticals Limited, priority 2021, published 2024)

Assays:
[1] = Delivery of cG-2-AllylP into CSF, blood and brain after single oral gavage dose; format: in vivo, male Sprague Dawley rats; conditions: for Mean Test Article Exposure, Blood / Mean Test Article Exposure, CSF / Mean Test Article Exposure, Brain: rat
Experimental: In an in vivo study, male Sprague Dawley rats (aged 14 weeks) received a single dose of cG-2-AllylP, either 100 mg/kg or 200 mg/kg by oral gavage. Cerebrospinal fluid (CSF) and whole blood were collected at 1.5 and 4 hours post-dose, and brain tissue was collected at 4 hours post-dose to evaluate cG-2-AllylP exposure.

Magel2-null mice [2] = assay: Nest building quality; format: in vivo, mouse; parameters: key: **** = p < 0.0001; ns = not significant
Text: (§1) The mouse locus 7qB4/B5 (syntenic with the Prader-Willi region at chromosome position 15q11-q13 in humans) encompasses the cluster of paternally-expressed imprinted genes Magel2, Ndn, Mkrn3, and Peg12. As maternal imprinting silences the Magel2 allele, only the paternally inherited Magel2 allele is expressed. Heterozygous females were bred with wild-type males (or C57BL/6J inbred males) to maintain the line; as the resulting offspring will have no abnormal phenotype. To obtain “Magel2-null” offspring (both maternal and paternal Magel2 alleles are non-functional), wild-type females are bred with heterozygous males; allowing maternal transmission of the imprinted/silenced wild-type allele and paternal transmission of the Magel2-lacZ (null) allele. Magel2-null mice have disrupted circadian rhythm and metabolism, total activity, food consumption, weight before weaning, and fertility in both sexes, as well as increased adiposity after weaning and altered behavior. Magel2-null mice on this C57BL/6J genetic background recapitulate Prader-Willi syndrome. Because the genetic mutation in the Magel2-null animals is the same as the mutation in human beings, studies in Magel2-null mice are reasonably predictive of effects of compounds in human beings.
(§2) In vivo experiments were conducted in C57BL/6-Magel2tm1Stw/J (Magel2-null) mice at age P60 and their wild-type littermates during the light phase (littermates that were wild-type for Magel2 were used as controls). Ten mice per treatment group were used for studies 1 and 2, and six mice per group for study 3. In study 1: C57BL/6-Magel2tm1Stw/J (Magel2-null) mice were assessed on behavioral assays. Study 2 tested the efficacy of cG-2-AllylP in treating obesity and insulin levels in Magel2-null mice. Study 3 tested the IGF-1 level in Magel2-null mice. Because human beings have the same genetic abnormality, studies of Magel2-null mice are reasonably predictive of effects of compounds of Formulas I, II, III and IV in human beings with Prader-Willi Syndrome.
(§3) Testing was performed during the light phase of the circadian cycle, with the order of testing being determined by the principle of conducting the most stressful tests last. Assays were designed to reproduce and expand on the original behavioral characterization of Magel2-null mice. Magel2-null and wild-type control mice were dosed once daily for 6 weeks prior to testing and tested 30 minutes following a dose of cG-2-AllylP (NNZ2591). Study groups and the treatment matrix are described in Table 2 below.
For small rodents, nests are important in heat conservation as well as reproduction and shelter. Nest building is an activity needed for mice to raise their offspring and is an indicator of social adaptation and activities of daily living. Typically, changes in nesting behaviors, such as failure to create a nest, indicate a change in health or welfare. Nesting behavior is sensitive to many genetic mutations underlying pathological disease states.
Nesting behavior is impaired in Magel2-null mice. Therefore, to determine if cG-2-AllylP might restore the quality of nest building, a series of studies were carried out.

Magel2-null mice [3] = assay: Open Field hypoactivity (distance travelled, time spent active); format: in vivo, mouse; parameters: key: **** = p < 0.0001; ns = not significant
Text: as §1, §2, §3
To evaluate whether cG-2-AllylP is effective to treat the hypoactivity in PWS, Open Field studies were carried out.
The relative distance travelled or time spent active is shown on the vertical axis, and the mean of each treatment group is shown on the horizontal axis. Wild-type (WT) mice treated with vehicle alone (left column) were considered to travel 100% or to have 100% activity.

Magel2-null mice [4] = assay: Circulating IGF-1 level in Magel2-null mice; format: in vivo, mouse; parameters: key: **** = p < 0.0001; ns = not significant
Experimental: as §2, §3
Prader-Willi Syndrome may be associated with altered IGF-1 levels in humans.

Magel2-null mice [5] = assay: Fat mass in female Magel2-null mice; format: in vivo, mouse; parameters: key: **** = p < 0.0001; ns = not significant
Experimental: as §2, §3
Prader-Willi Syndrome is associated with metabolic and hormonal abnormalities in humans. Magel2-null mice recapitulate some of the metabolic and hormonal aspects of humans with Prader-Willi Syndrome. Experiments were conducted to determine if cG-2-AllylP could have a normalizing effect in metabolic and hormonal aspects.
Because female Magel2-null mice present a significant increase in body weight compared with their littermate wild-type controls, female Magel2-null mice were used for this study.

Magel2-null mice [6] = assay: Novel Object Recognition (NOR); format: in vivo, mouse; parameters: key: **** = p < 0.0001; ns = not significant
Text: as §1, §2, §3
The NOR test is used to evaluate cognition, based on the tendency for mice to spend more time exploring a novel object that a familiar object. Magel2-null mice display a lack of discrimination between known and novel objects.

[7] = single oral dose 100 mg/kg, 1.5 h post-dose
[8] = single oral dose 100 mg/kg, 4 h post-dose
[9] = single oral dose 200 mg/kg, 1.5 h post-dose
[10] = single oral dose 200 mg/kg, 4 h post-dose
[11] = Magel2-null + NNZ2591 (100 mg/kg) vs. Magel2-null + NNZ2591 (200 mg/kg)
[12] = Magel2-null + Vehicle vs. Magel2-null + NNZ2591 (100 mg/kg)
[13] = Magel2-null + Vehicle vs. Magel2-null + NNZ2591 (200 mg/kg)
[14] = WT + NNZ2591 (100 mg/kg) vs. Magel2-null + NNZ2591 (100 mg/kg)
[15] = WT + NNZ2591 (200 mg/kg) vs. Magel2-null + NNZ2591 (200 mg/kg)
[16] = WT + Vehicle vs. WT + NNZ2591 (100 mg/kg)
[17] = WT + Vehicle vs. WT + NNZ2591 (200 mg/kg)

Concentration in blood versus brain tissue ([1]; 4 hours post-dose): approximately equivalent
Dose dependence of concentration ([1]; blood and CSF at 1.5 hours, blood, CSF and brain at 4 hours, single oral dose 100 vs 200 mg/kg): approximately proportional increase
Mean Test Article Exposure, Blood [1, 7]: 58.5 µg/mL
Mean Test Article Exposure, CSF [1, 7]: 40.4 µg/mL
Mean Test Article Exposure, Blood [1, 8]: 15.6 µg/mL
Mean Test Article Exposure, Brain [1, 8]: 22.6 µg/mL
Mean Test Article Exposure, CSF [1, 8]: 11.0 µg/mL
Mean Test Article Exposure, Blood [1, 9]: 116.0 µg/mL
Mean Test Article Exposure, CSF [1, 9]: 82.2 µg/mL
Mean Test Article Exposure, Blood [1, 10]: 34.2 µg/mL
Mean Test Article Exposure, Brain [1, 10]: 37.0 µg/mL
Mean Test Article Exposure, CSF [1, 10]: 24.7 µg/mL
melting point: 106 to 109 °C
Structure (SMILES): C=CCC12CCCN1C(=O)CNC2=O [cG-2-AllylP, (8aS)-Allyl-hexahydropyrrolo[1,2-a]pyrazine-1,4-dione]
Nesting, Sidak's multiple comparisons test, Summary (Magel2-null mice [2]; [11]): ns
Nesting, Sidak's multiple comparisons test, Summary (Magel2-null mice [2]; [12]): **** (**** = p < 0.00001.)
Nesting, Sidak's multiple comparisons test, Summary (Magel2-null mice [2]; [13]): **** (**** = p < 0.00001.)
Nesting, Sidak's multiple comparisons test, Summary (Magel2-null mice [2]; [14]): ns
Nesting, Sidak's multiple comparisons test, Summary (Magel2-null mice [2]; [15]): ns
Nesting, Sidak's multiple comparisons test, Summary (Magel2-null mice [2]; [16]): ns
Nesting, Sidak's multiple comparisons test, Summary (Magel2-null mice [2]; [17]): ns
Open Field (Hypoactivity) - Motility, Sidak's multiple comparisons test, Summary (Magel2-null mice [3]; [11]): ns
Open Field (Hypoactivity) - Distance travelled, Sidak's multiple comparison test, Summary (Magel2-null mice [3]; [12]): **** (**** = p < 0.0001)
Open Field (Hypoactivity) - Distance travelled, Sidak's multiple comparison test, Summary (Magel2-null mice [3]; [13]): **** (**** = p < 0.0001)
Open Field (Hypoactivity) - Motility, Sidak's multiple comparisons test, Summary (Magel2-null mice [3]; [13]): **** (**** = p < 0.0001)
Open Field (Hypoactivity) - Motility, Sidak's multiple comparisons test, Summary (Magel2-null mice [3]; Magel2-null + Vehicle vs. WT + NNZ2591 (100 mg/kg)): **** (**** = p < 0.0001)
Open Field (Hypoactivity) - Distance travelled, Sidak's multiple comparison test, Summary (Magel2-null mice [3]; [14]): ns
Open Field (Hypoactivity) - Motility, Sidak's multiple comparisons test, Summary (Magel2-null mice [3]; [14]): ns
Open Field (Hypoactivity) - Distance travelled, Sidak's multiple comparison test, Summary (Magel2-null mice [3]; WT + NNZ2591 (100 mg/kg) vs. Magel2-null + NNZ2591 (200 mg/kg)): ns
Open Field (Hypoactivity) - Distance travelled, Sidak's multiple comparison test, Summary (Magel2-null mice [3]; [15]): ns
Open Field (Hypoactivity) - Motility, Sidak's multiple comparisons test, Summary (Magel2-null mice [3]; [15]): ns
Open Field (Hypoactivity) - Distance travelled, Sidak's multiple comparison test, Summary (Magel2-null mice [3]; [16]): ns
Open Field (Hypoactivity) - Motility, Sidak's multiple comparisons test, Summary (Magel2-null mice [3]; [16]): ns
Open Field (Hypoactivity) - Distance travelled, Sidak's multiple comparison test, Summary (Magel2-null mice [3]; [17]): ns
Open Field (Hypoactivity) - Motility, Sidak's multiple comparisons test, Summary (Magel2-null mice [3]; [17]): ns
IGF-1 level, Sidak's multiple comparisons test, Summary (Magel2-null mice [4]; [12]): **** (**** = p < 0.0001)
IGF-1 level, Sidak's multiple comparisons test, Summary (Magel2-null mice [4]; [15]): ns
IGF-1 level, Sidak's multiple comparisons test, Summary (Magel2-null mice [4]; [16]): ns
IGF-1 level, Sidak's multiple comparisons test, Summary (Magel2-null mice [4]; [17]): ns
Effect on fat mass, Sidak's multiple comparisons test, Summary (Magel2-null mice [5]; [12]): ns
Effect on fat mass, Sidak's multiple comparisons test, Summary (Magel2-null mice [5]; [13]): **** (**** = p < 0.0001)
Effect on fat mass, Sidak's multiple comparisons test, Summary (Magel2-null mice [5]; [15]): ns
Effect on fat mass, Sidak's multiple comparisons test, Summary (Magel2-null mice [5]; [16]): ns
Effect on fat mass, Sidak's multiple comparisons test, Summary (Magel2-null mice [5]; [17]): ns
Novel object recognition, Sidak's multiple comparisons test, Summary (Magel2-null mice [6]; [11]): ns
Novel object recognition, Sidak's multiple comparisons test, Summary (Magel2-null mice [6]; [13]): **** (**** = p < 0.0001)
Novel object recognition, Sidak's multiple comparisons test, Summary (Magel2-null mice [6]; [14]): ns
Novel object recognition, Sidak's multiple comparisons test, Summary (Magel2-null mice [6]; [15]): ns
Novel object recognition, Sidak's multiple comparisons test, Summary (Magel2-null mice [6]; [16]): ns
Novel object recognition, Sidak's multiple comparisons test, Summary (Magel2-null mice [6]; [17]): ns
